Results on nine molecules are retold here after ChEMBL document CHEMBL6074631, “Design, synthesis, and evaluation of pyranochromene derivatives as membrane targeting antibacterials against Gram-positive bacteria” (Bioorg Med Chem Lett, 2024).

The structures appear in SMILES notation. ≈ marks a conversion by molar mass, not a printed value. Bounds are passed on as bounds.

Holding throughout (format): functional
In assay [1] the test system is Staphylococcus epidermidis. Description: Antibacterial activity against vancomycin-susceptible Staphylococcus epidermidis ATCC12228 assessed as reduction in bacterial growth by broth microdilution assay. Background: Broth dilution looks for growth in wells or tubes with falling amounts of substance.
Another assay deals with Escherichia coli. Briefly: Antibacterial activity against Escherichia coli ATCC25922 assessed as reduction in bacterial growth by broth microdilution assay.
For the next assay, the system named is Acinetobacter baumannii. Description: Antibacterial activity against Acinetobacter baumannii ATCC19606 assessed as reduction in bacterial growth by broth microdilution assay.
In a further assay the test system is Bacillus subtilis. Description: Antibacterial activity against […] Bacillus subtilis ATCC9372 assessed as reduction in bacterial growth by broth microdilution assay.
Assay [2] concerns Staphylococcus aureus. Briefly: Antibacterial activity against Staphylococcus aureus ATCC25923 assessed as reduction in bacterial growth by broth microdilution assay.
The test system of assay [3] is Staphylococcus aureus. Description: Antibacterial activity against Staphylococcus aureus ATCC31007 assessed as reduction in bacterial growth by broth microdilution assay.
The next assay relates to Klebsiella pneumoniae. Description: Antibacterial activity against erythromycin-susceptible Klebsiella pneumoniae ATCC10031 assessed as reduction in bacterial growth by broth microdilution assay.
Assay [4] has as its system Staphylococcus aureus. Description: Antibacterial activity against […] Staphylococcus aureus ATCC43300 assessed as reduction in bacterial growth by broth microdilution assay.
The subject of a further assay is Enterococcus faecalis. Description: Antibacterial activity against penicillin-susceptible Enterococcus faecalis ATCC29212 assessed as reduction in bacterial growth by broth microdilution assay.
A further assay concerns Pseudomonas aeruginosa. Description: Antibacterial activity against penicillin-susceptible Pseudomonas aeruginosa ATCC27853 assessed as reduction in bacterial growth by broth microdilution assay.

The MIC is the smallest concentration in the dilution series that meets the test's criterion for growth inhibition. On to `COc1c2c(c3c(c1C(=O)/C=C/c1ccc(OCCCN4CCSCC4)cc1)OC(C)(CCC=C(C)C)C=C3)OC(C)(CCC=C(C)C)C=C2` (stereo not given), for which the minimal inhibitory concentration (MIC) (in assay [1]; in the assay on Escherichia coli; in the assay on Acinetobacter baumannii; with Bacillus subtilis; in the assay with Staphylococcus aureus [2]; in the assay with Staphylococcus aureus [3]) was > 128 µg/mL in each case. For the same molecule, the MIC with Klebsiella pneumoniae, in the assay on Staphylococcus aureus [4], in the assay with Enterococcus faecalis and in the assay with Pseudomonas aeruginosa was > 128 µg/mL each time.

On to `CC(=O)c1c(OCC(=O)NCCCN2CCCC2)c2c(c3c1OC(C)(CCC=C(C)C)C=C3)OC(C)(CCC=C(C)C)C=C2` (stereo not given), for which the minimum inhibitory concentration (MIC) in assay [1] is 8 µg/mL (≈ 13.2 µM); in the assay on Escherichia coli it was > 128 µg/mL; with Acinetobacter baumannii, 128 µg/mL (≈ 212 µM); in the assay with Bacillus subtilis, 16 µg/mL (≈ 26.5 µM); in the assay with Staphylococcus aureus [2], 4 µg/mL (≈ 6.61 µM); in the assay on Staphylococcus aureus [3] it was 4 µg/mL (≈ 6.61 µM). For the same molecule, the MIC in the assay on Klebsiella pneumoniae is > 128 µg/mL; with Staphylococcus aureus [4], 4 µg/mL (≈ 6.61 µM); in the assay on Enterococcus faecalis, 8 µg/mL (≈ 13.2 µM); in the assay with Pseudomonas aeruginosa, > 128 µg/mL.

For the molecule `COc1c2c(c3c(c1C(=O)/C=C/c1ccc(OCCCN(CCCN(C)C)CCCN(C)C)cc1)OC(C)(CCC=C(C)C)C=C3)OC(C)(CCC=C(C)C)C=C2` (stereo not given), the MIC in assay [1] was 2 µg/mL (≈ 2.56 µM); in the assay on Escherichia coli it was > 128 µg/mL; in the assay with Acinetobacter baumannii it was > 128 µg/mL; in the assay on Bacillus subtilis, 8 µg/mL (≈ 10.2 µM); in the assay on Staphylococcus aureus [2], 8 µg/mL (≈ 10.2 µM); with Staphylococcus aureus [3] it was 8 µg/mL (≈ 10.2 µM). Further, the MIC is > 128 µg/mL with Klebsiella pneumoniae, 8 µg/mL (≈ 10.2 µM) in the assay with Staphylococcus aureus [4], 8 µg/mL (≈ 10.2 µM) with Enterococcus faecalis and > 128 µg/mL in the assay with Pseudomonas aeruginosa.

Regarding `CCN(CC)CCCNCCCOc1ccc(/C=C/C(=O)c2c(OC)c3c(c4c2OC(C)(CCC=C(C)C)C=C4)OC(C)(CCC=C(C)C)C=C3)cc1` (stereo not given), the MIC in assay [1] was 4 µg/mL (≈ 5.52 µM); in the assay with Escherichia coli it was > 128 µg/mL; with Acinetobacter baumannii, > 128 µg/mL; in the assay with Bacillus subtilis, 8 µg/mL (≈ 11 µM); with Staphylococcus aureus [2] it was 16 µg/mL (≈ 22.1 µM); in the assay with Staphylococcus aureus [3], 32 µg/mL (≈ 44.1 µM). The MIC with Klebsiella pneumoniae is > 128 µg/mL; in the assay with Staphylococcus aureus [4], 16 µg/mL (≈ 22.1 µM); with Enterococcus faecalis, 32 µg/mL (≈ 44.1 µM); in the assay with Pseudomonas aeruginosa, > 128 µg/mL.

As for `COc1c2c(c3c(c1C(=O)/C=C/c1ccc(OCCCN4CCOCC4)cc1)OC(C)(CCC=C(C)C)C=C3)OC(C)(CCC=C(C)C)C=C2` (stereo not given), the MIC (in assay [1]; with Escherichia coli; with Acinetobacter baumannii; in the assay on Bacillus subtilis; in the assay with Staphylococcus aureus [2]; in the assay with Staphylococcus aureus [3]) was > 128 µg/mL each time. The MIC in the assay on Klebsiella pneumoniae, in the assay on Staphylococcus aureus [4], in the assay with Enterococcus faecalis and in the assay with Pseudomonas aeruginosa was > 128 µg/mL in each case.

Consider `CC[N+](CC)(CC)CCCOc1ccc(/C=C/C(=O)c2c(OC)c3c(c4c2OC(C)(CCC=C(C)C)C=C4)OC(C)(CCC=C(C)C)C=C3)cc1` (stereo not given), for which the MIC in [1] was 4 µg/mL; in the assay with Escherichia coli it was > 128 µg/mL; in the assay on Acinetobacter baumannii it was > 128 µg/mL; with Bacillus subtilis, 64 µg/mL; in the assay with Staphylococcus aureus [2], 64 µg/mL; in the assay on Staphylococcus aureus [3] it was 64 µg/mL. In addition, the MIC is > 128 µg/mL in the assay on Klebsiella pneumoniae, > 128 µg/mL with Staphylococcus aureus [4], 32 µg/mL with Enterococcus faecalis and > 128 µg/mL with Pseudomonas aeruginosa.

On to `COc1c2c(c3c(c1C(=O)/C=C/c1ccc(OCCCN(C)CCCN(C)C)cc1)OC(C)(CCC=C(C)C)C=C3)OC(C)(CCC=C(C)C)C=C2` (stereo not given), for which the MIC is 2 µg/mL (≈ 2.81 µM) in assay [1]; > 128 µg/mL in the assay with Escherichia coli; > 128 µg/mL in the assay on Acinetobacter baumannii; > 128 µg/mL in the assay with Bacillus subtilis; > 128 µg/mL in the assay on Staphylococcus aureus [2]; > 128 µg/mL in the assay with Staphylococcus aureus [3]. The minimum inhibitory concentration (MIC) in the assay with Klebsiella pneumoniae was > 128 µg/mL; in the assay with Staphylococcus aureus [4], > 128 µg/mL; in the assay with Enterococcus faecalis, 16 µg/mL (≈ 22.5 µM); with Pseudomonas aeruginosa it was > 128 µg/mL.

On to `CC(=O)c1c(OCC(=O)N(C)CCCN(C)C)c2c(c3c1OC(C)(CCC=C(C)C)C=C3)OC(C)(CCC=C(C)C)C=C2` (stereo not given), for which the MIC in assay [1] was 2 µg/mL (≈ 3.37 µM); in the assay with Escherichia coli, > 128 µg/mL; in the assay on Acinetobacter baumannii it was 128 µg/mL (≈ 216 µM); in the assay with Bacillus subtilis, 2 µg/mL (≈ 3.37 µM); in the assay on Staphylococcus aureus [2] it was 4 µg/mL (≈ 6.75 µM); with Staphylococcus aureus [3] it was 4 µg/mL (≈ 6.75 µM). In addition, the MIC is > 128 µg/mL in the assay on Klebsiella pneumoniae, 4 µg/mL (≈ 6.75 µM) in the assay on Staphylococcus aureus [4], 2 µg/mL (≈ 3.37 µM) in the assay with Enterococcus faecalis and 128 µg/mL (≈ 216 µM) in the assay on Pseudomonas aeruginosa.

Regarding `CCNCCCOc1ccc(/C=C/C(=O)c2c(OC)c3c(c4c2OC(C)(CCC=C(C)C)C=C4)OC(C)(CCC=C(C)C)C=C3)cc1` (stereo not given), the MIC in assay [1] was > 128 µg/mL; in the assay on Escherichia coli, > 128 µg/mL; with Acinetobacter baumannii, 128 µg/mL (≈ 200 µM); with Bacillus subtilis, 128 µg/mL (≈ 200 µM); with Staphylococcus aureus [2], > 128 µg/mL; with Staphylococcus aureus [3] it was > 128 µg/mL. In addition, the MIC is > 128 µg/mL with Klebsiella pneumoniae, > 128 µg/mL with Staphylococcus aureus [4], > 128 µg/mL in the assay with Enterococcus faecalis and 128 µg/mL (≈ 200 µM) in the assay on Pseudomonas aeruginosa.
